Laboratory results as given in ChEMBL document CHEMBL1201862, “PubChem BioAssay data set” (2004).
Values belong to the molecule of their own block, whether it stands above or below them. Calls of active or inactive are those of the source.

Key:
[1] = molecular target: T1, CAAX prenyl protease 2 (Saccharomyces cerevisiae S288c, UniProt Q03530); format: biochemical
T1 sequence (Q03530 whole entry): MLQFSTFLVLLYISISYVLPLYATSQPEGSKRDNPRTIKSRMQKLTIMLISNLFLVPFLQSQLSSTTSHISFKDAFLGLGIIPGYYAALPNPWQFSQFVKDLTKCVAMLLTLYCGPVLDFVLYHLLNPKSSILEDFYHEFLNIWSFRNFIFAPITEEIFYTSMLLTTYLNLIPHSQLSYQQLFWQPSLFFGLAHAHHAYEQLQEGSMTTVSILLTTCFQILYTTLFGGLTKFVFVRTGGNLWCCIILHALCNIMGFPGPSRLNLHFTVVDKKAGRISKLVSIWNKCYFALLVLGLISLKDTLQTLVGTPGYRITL

[2] = molecular target: T2, CAAX prenyl protease 2 (Homo sapiens, UniProt Q9Y256); assay: human Rce1 protease inhibitors, dose response, biochemical, yeast membranes, quenched-peptide fluorescence, cherry-pick (AID 588849)
T2 sequence (Q9Y256 whole entry): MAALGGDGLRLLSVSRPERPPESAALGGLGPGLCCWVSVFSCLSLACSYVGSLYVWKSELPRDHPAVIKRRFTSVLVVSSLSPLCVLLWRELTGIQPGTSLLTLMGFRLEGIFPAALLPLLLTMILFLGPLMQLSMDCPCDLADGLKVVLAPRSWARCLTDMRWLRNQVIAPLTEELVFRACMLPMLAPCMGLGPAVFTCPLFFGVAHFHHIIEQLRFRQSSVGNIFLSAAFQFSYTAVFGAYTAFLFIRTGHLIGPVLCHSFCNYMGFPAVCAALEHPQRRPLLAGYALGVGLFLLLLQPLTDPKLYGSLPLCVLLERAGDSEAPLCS

[3] = tested on: A-375; assay: MITF: Counter assay: A375 proliferation Measured in Cell-Based System Using Plate Reader - 2084-03_Inhibitor_Dose_DryPowder_Activity. [Related pubchem assays (depositor defined):AID488944]; format: functional; conditions: Homo sapiens
[4] = tested on: Escherichia coli; assay: microbe, parasite or virus in culture
[5] = molecular target: Trypsin (Sus scrofa, UniProt P00761); assay: porcine trypsin inhibitors, dose response, selectivity assay for Rce1 protease inhibitor project, biochemical, quenched peptide fluorescence, cherry-pick (AID 488789)
[6] = molecular target: Mu-type opioid receptor (Homo sapiens, UniProt P35372); assay: (§1) Counterscreen for agonists of heterodimerization of the mu 1 (OPRM1) and delta 1 (OPRD1) opioid receptors: Luminescence-based cell-based high throughput dose response assay to identify agonists of OPRM1 homodimerization.; format: functional
[7] = molecular target: Delta-type opioid receptor (Homo sapiens, UniProt P41143); assay: as §1, with “of OPRD1” for “of OPRM1”, “homodimerization. [Related pubchem assays (depositor defined):AID504326, AID504355, AID504692, AID504904, AID504905]” for “homodimerization.”; format: functional
[8] = molecular target: 5-hydroxytryptamine receptor 5A (Homo sapiens, UniProt P47898); assay: Counterscreen for agonists of OPRM1-OPRD1 heterodimerization: luminescence-based cell-based high throughput dose response assay to identify agonists of 5-hydroxytryptamine (serotonin) 5A receptor (HTR5A). [Related pubchem assays (depositor defined):AID504326, AID504355, AID504692, AID504904, AID504905]; format: functional
[9] = molecular target: T3, Short transient receptor potential channel 4 (Mus musculus, UniProt Q9QUQ5); assay: mouse TRPC4 channel activators, dose response, cell-based, HEK293 TRPC4/mu-opioid, Fluo-4 calcium (AID 434937); format: functional
T3 sequence (Q9QUQ5 whole entry): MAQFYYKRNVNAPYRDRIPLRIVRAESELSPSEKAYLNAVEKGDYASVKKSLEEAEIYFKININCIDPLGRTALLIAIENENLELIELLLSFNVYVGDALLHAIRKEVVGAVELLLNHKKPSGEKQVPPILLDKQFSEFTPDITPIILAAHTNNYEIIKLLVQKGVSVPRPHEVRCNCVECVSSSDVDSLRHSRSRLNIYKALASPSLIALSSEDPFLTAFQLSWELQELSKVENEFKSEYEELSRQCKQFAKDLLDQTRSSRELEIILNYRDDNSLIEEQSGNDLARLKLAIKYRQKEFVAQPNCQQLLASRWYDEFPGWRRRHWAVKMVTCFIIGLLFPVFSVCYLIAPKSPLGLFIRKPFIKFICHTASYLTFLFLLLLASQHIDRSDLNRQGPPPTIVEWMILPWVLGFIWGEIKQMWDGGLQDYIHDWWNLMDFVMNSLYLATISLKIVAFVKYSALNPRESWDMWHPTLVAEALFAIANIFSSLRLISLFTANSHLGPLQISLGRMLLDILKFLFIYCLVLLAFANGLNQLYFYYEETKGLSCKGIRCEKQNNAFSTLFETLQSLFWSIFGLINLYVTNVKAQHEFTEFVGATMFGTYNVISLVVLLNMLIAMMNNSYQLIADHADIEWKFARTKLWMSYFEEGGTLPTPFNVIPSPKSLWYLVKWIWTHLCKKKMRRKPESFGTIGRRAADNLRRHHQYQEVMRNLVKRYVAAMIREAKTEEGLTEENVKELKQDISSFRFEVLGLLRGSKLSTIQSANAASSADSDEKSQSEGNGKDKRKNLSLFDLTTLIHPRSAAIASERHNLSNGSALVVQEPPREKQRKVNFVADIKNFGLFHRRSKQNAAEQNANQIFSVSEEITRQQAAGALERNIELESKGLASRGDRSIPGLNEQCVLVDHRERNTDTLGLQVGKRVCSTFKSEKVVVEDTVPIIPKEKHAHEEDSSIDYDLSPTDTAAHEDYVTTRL

[10] = tested on: A-375; assay: A375 melanoma cell viability reduction, dose response, counter-screen for MITF modulator project, cherry-pick samples, set 2 (AID 540335); format: functional, cell-based; conditions: Homo sapiens
[11] = molecular target: T4, Microphthalmia-associated transcription factor (Homo sapiens, UniProt O75030); assay: TRPM1 promoter luciferase signal decrease, dose response, MITF inhibitor project, cell-based, SK-MEL-5, cherry-picked, set 3 (AID 493073); format: functional
T4 sequence (O75030 whole entry): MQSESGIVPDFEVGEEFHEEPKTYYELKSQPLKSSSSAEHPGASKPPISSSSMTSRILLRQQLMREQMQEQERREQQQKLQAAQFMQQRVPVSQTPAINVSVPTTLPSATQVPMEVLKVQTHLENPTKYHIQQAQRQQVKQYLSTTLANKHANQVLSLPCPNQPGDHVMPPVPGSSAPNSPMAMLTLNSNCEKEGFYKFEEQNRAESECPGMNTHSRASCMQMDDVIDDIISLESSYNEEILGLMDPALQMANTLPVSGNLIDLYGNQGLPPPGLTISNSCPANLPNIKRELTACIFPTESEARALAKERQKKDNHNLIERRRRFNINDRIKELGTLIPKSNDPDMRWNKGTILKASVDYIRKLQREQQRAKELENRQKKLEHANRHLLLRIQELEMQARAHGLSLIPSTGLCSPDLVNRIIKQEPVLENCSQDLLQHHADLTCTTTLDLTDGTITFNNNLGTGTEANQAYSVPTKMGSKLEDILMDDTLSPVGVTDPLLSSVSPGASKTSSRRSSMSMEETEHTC

[12] = cytotoxicity in MIN6 insulinoma cells, dose response, cytotoxicity control, cell-based, mouse insulinoma (AID 2122); format: functional;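 note: confirmatory high-throughput counterscreen run to flag cytotoxic compounds; mouse MIN-6 beta cells carrying an insulin promoter eGFP reporter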
[13] = insulin promoter down-regulators in MIN6 cells, imaging, high-content screening, mouse beta cells (AID 1628); format: functional
[14] = tested on: INS1; assay: beta cell apoptosis inhibitors, cytokine rescue, dose response, luminescence, retest (AID 449756); format: functional, cell-based; conditions: Rattus norvegicus;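 note: cell death triggered by IL-1 beta plus TNF-alpha plus IFN-gamma mixture; protective hits raise ATP signal compared with cytokine alone wells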
[15] = molecular target: T5, Aminopeptidase N (Plasmodium falciparum FcB1/Columbia, UniProt O96935); assay: P. falciparum M1AAP inhibitors, biochemical, fluorogenic H-Leu-NHMec substrate, 1536-well (AID 1445); parameters: species or system Plasmodium falciparum 3D7, 3D7
T5 sequence (O96935 whole entry): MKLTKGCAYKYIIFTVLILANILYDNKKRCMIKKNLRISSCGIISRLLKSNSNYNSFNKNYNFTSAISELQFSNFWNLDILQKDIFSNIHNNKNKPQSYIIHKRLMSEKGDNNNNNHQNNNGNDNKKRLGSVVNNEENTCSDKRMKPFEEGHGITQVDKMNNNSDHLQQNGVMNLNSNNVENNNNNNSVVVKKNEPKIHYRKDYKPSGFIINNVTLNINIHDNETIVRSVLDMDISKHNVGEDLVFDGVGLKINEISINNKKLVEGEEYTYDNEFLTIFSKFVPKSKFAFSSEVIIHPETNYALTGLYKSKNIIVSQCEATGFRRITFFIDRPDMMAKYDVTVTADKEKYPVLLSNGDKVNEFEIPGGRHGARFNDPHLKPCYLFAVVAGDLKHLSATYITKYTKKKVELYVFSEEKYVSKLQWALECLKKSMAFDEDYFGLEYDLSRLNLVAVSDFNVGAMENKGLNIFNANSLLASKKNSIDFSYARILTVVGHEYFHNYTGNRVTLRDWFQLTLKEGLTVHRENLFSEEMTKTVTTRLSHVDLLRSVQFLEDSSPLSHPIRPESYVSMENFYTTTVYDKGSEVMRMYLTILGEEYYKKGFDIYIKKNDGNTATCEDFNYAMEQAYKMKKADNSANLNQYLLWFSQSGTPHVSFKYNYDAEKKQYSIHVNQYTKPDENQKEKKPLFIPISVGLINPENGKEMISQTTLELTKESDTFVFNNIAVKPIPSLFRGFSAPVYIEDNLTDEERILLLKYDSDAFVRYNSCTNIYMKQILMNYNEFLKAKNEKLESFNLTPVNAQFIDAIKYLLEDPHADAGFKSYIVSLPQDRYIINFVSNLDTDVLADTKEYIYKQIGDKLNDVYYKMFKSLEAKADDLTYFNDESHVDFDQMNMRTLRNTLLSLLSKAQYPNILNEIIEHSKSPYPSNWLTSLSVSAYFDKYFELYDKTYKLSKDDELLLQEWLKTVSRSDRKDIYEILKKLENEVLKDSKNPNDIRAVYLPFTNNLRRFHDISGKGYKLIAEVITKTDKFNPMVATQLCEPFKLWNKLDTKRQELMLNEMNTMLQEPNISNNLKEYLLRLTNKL

[16] = cells; format: functional, cell-based; conditions: HEK-CNG
[17] = C. albicans growth with fluconazole, confirmation, fluorescence, retest (AID 2467); format: functional, cell-based
[18] = NIH-3T3 fibroblast cytotoxicity, dose response, cytotoxicity control, cell-based, fluorescence, Alamar Blue, secondary assay (AID 2327); format: functional;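 note: NIH-3T3 mouse fibroblasts cultured with fluconazole at 8 µg/mL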
[19] = molecular target: T6, Galanin receptor type 3 (Homo sapiens, UniProt O60755); assay: Fluorescence-based cell-based primary high throughput dose response assay to identify antagonists of the Galanin Receptor 3 (GalR3).; format: functional
T6 sequence (O60755 whole entry): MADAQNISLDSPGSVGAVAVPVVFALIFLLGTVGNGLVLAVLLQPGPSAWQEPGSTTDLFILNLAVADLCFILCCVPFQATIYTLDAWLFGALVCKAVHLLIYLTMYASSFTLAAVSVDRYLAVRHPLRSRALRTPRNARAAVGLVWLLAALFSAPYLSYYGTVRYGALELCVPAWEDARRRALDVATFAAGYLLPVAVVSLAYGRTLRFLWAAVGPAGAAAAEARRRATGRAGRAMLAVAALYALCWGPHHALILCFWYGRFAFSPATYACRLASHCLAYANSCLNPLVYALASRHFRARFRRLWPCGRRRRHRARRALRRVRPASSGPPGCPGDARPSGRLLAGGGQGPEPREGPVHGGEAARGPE

5-hydroxytryptamine receptor 5A, sequence (P47898 whole entry): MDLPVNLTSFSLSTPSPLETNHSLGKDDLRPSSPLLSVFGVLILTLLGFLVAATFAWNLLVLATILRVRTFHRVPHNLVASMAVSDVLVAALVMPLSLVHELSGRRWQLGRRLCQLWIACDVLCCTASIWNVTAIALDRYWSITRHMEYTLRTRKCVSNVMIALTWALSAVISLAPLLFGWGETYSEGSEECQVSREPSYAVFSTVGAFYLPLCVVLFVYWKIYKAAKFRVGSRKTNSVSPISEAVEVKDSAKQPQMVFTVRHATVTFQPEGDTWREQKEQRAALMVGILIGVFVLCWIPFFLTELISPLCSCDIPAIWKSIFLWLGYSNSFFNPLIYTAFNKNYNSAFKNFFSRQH
Mu-type opioid receptor, sequence (P35372 whole entry): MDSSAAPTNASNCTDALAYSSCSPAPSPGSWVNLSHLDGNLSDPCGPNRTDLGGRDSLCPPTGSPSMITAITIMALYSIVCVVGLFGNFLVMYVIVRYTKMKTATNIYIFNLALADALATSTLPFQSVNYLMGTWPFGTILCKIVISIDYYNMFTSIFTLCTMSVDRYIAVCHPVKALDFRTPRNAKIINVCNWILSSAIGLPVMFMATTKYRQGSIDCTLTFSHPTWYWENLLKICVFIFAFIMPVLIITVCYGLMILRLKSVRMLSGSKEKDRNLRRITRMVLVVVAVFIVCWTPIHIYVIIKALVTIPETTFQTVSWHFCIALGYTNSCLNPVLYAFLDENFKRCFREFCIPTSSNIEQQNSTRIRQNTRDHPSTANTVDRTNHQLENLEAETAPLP
Delta-type opioid receptor, sequence (P41143 whole entry): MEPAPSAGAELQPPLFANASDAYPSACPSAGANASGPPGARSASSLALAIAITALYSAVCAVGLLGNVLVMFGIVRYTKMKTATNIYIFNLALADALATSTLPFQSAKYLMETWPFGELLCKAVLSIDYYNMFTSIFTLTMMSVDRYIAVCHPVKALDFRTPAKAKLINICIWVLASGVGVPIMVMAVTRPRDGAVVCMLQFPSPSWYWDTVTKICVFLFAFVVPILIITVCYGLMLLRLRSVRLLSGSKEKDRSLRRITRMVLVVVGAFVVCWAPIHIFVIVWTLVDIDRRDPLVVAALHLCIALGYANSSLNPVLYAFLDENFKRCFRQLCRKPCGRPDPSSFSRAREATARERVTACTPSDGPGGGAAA
Trypsin, sequence (P00761 whole entry): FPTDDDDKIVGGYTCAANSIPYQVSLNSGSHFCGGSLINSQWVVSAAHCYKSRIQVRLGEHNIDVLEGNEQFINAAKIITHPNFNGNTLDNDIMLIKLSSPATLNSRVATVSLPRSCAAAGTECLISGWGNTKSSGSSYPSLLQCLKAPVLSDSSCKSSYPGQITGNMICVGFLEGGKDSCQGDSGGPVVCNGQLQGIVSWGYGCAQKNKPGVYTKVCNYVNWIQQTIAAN

AC50 [1]: 7.99 µM (active)
AC50 [2]: 5.17 µM (active)
SMILES: CN(C)c1ccc(/C=N/NC(=O)CNC(=O)c2ccco2)cc1

SMILES: COc1ccc(-c2nc3n(c2C)Cc2ccccc2-3)cc1
AC50 [3]: 30.1 µM (active)

SMILES: CC(C)(C)c1ccc(C(=O)O)c(C(=O)c2ccc(C(=O)O)cc2)c1
AC50 [4]: 49.3 µM (active)

AC50 [1]: 6.98 µM (active)
AC50 [2]: 2.64 µM (active)
AC50 [5]: 5.99 µM (active)
SMILES: CN(c1ccccc1)c1ccc(/C=N/NC(=O)CC#N)cc1

AC50 [1]: 68 µM (active)
AC50 [5]: 9.63 µM (active)
SMILES: CC1(c2ccncc2)Nc2ccccc2-c2nc3ccccc3n21 (centres undefined)

EC50 [6]: > 92.5 µM (inactive)
EC50 [7]: > 92.5 µM (inactive)
EC50 [8]: > 92.5 µM (inactive)
SMILES: O=C(Nc1ccccc1)c1ccc(NC2CCCCC2)c(S(=O)(=O)N2CCOCC2)c1

SMILES: CN(C)CCCN(C(=O)c1ccc(Cl)s1)c1nc2cc3c(cc2s1)OCO3
AC50 [3]: > 11 µM (active)
EC50 [9]: 5.96 µM (active)
AC50 [10]: > 11 µM (active)
AC50 [11]: 22.9 µM (active)

EC50 [9]: 0.0533 µM (active)
EC50 [6]: > 92.5 µM (inactive)
EC50 [7]: 31 µM (inactive)
EC50 [8]: > 92.5 µM (inactive)
SMILES: CC(=O)NC(CC(=O)NCC(c1ccco1)N(C)C)c1ccccc1 (centres undefined)

SMILES: Cn1cc(CNCc2ccc(OC(F)(F)F)cc2)c(-c2ccc3c(c2)OCCO3)n1
IC50 [12]: < 0.25 µM (active)
IC50 [13]: 0.272 µM (active)
AC50 [14]: 1.04 µM (active)

EC50 [6]: > 92.5 µM (inactive)
EC50 [7]: > 92.5 µM (inactive)
EC50 [8]: > 92.5 µM (inactive)
SMILES: CCOC(=O)C1(Cc2ccccc2)CCN(Cc2cccn2-c2nccs2)CC1

SMILES: COc1ccc(/C=N/NC(=O)c2[nH]c3ccc(Br)cc3c2-c2ccccc2)c(C(=O)O)c1OC
IC50 [15]: 65.3 µM (active)

SMILES: CC(C)(C)c1ccc(-c2c[n+](-c3ccc(Br)cc3)c3n2CCCS3)cc1
EC50 [16]: > 29.9 µM (inactive)
EC50 [17]: 0.199 µM (active)
EC50 [18]: > 160 µM (inactive)
AC50 [10]: 34.1 µM (active)
IC50 [19]: 10.1 µM (inactive)
AC50 [11]: 3.2 µM (active)

SMILES: Cc1nn(Cc2ccccc2)c(C)c1C(=O)NCc1ccccc1
AC50 [4]: 42.7 µM (active)
